Here are results for 15 molecules from patent EP3577173B1, “COMPOSITIONS CONTAINING FATTY ACID ESTERS OF VEGETABLE ORIGIN AS SOLVENTS” (Benessere, Vincenzo, priority 2017, dated 2018).

Data set [1] in a line: Dissolution time of resin in solvent until the solution is clear (base for coating materials). Type of data set: physicochemical. The note with it: magnetic stirring, time when solution becomes clear and no deposit is found. The procedure: Three commercial solvents (D100, mineral oil; 7129, 2-ethylhexyl palmitate; PARYOL TMC 810T, caprylic/capric triglyceride) and the solvents described in examples 1-4 were used. The resins of Example 1 and the chosen solvent were placed on a heating plate under magnetic stirring at 80 °C for one hour, and then allowed to cool to ambient temperature for 24 hrs. Table 1. ROSIN MODIFIED ESTER RESIN BASED PAINTS

Data set [2] in a line: Dynamic light scattering of 5% by weight resin solution (solvent power). In kind it is physicochemical. The note with it: DLS. An excerpt: A first assessment of the higher solvent power of pelargonic acid esters with respect to the classical solvents can be performed by means of the analysis of the data obtained with the dynamic light scattering technique (SMD 6000 Laser Quantum apparatus,50 mW source of light beam at 532.5 nm) carried out on the solution at 5% by weight of modified phenolic (Table 3) and Maleic (Table 4)Resin, solubilized with traditional mineral solvents (base mineral oilD100), traditional vegetal oil (RADIA 7129) and the solvents of the present invention. The DLS technique (Dynamic Light Scattering) allows to monitor the intensity depending on time of the light scattered by an object into a solution. The speed of fluctuation of the light intensity depends on the speed with which the element capable of generating such scattering moves into a solution; the latter is described by the diffusion coefficient D, which is related to the size of the particles into the solution, in particular to the hydrodynamic radius RI of a ball moving in a solvent having a viscosity η, according to the Stokes-Einstein equation: D = (kT)/(6πηRi) [formula] where k is the Boltzmann constant and T is the temperature.
The measurements of the dynamic light scattering allowed to evaluate the capacity of different solvents, used to disperse the two resins, to generate sub-micrometric aggregates: K16 and a maleic resin. This dispersion capacity is linked to the solvent capacity of individual substances. The lower is the size of aggregates, the better is the solvent power for the solute concerned. In the case of the present invention, the solvent consists of the compounds of general formula (I) and solutes are modified PHENOLIC RESINS and MALEIC RESINS. In this case, the smaller is the hydrodynamic radius, better is the solvation degree of the resin by the solvent, which is therefore better than solvents giving a lower solvation degree, and therefore a larger hydrodynamic radius relative to the same resins. The hydrodynamic radii found by DLS for the solvents used by us are the lowest compared to the other commercially available solventsstudied. The high solvent power, therefore confirmed by the hydrodynamic radius, has a huge impact on the paint final properties and on the production mode. The final properties are affected by the fact that the higher solvent power of our compounds allows to dissolve the rosin and maleic resins up to 70% by weight, and therefore allow to produce paints having a high degree of gloss and very high surface resistance, since these latter properties depend on the amount of resin that a solvent can dissolve to form a paint. In addition, the production mode of the paint was performed at 80°C instead of 200°C because our compounds are more solvent with respect to the commercially available ones and need a lower operating temperature in order to dissolve completely and appropriately the resins concerned.
Actually, in samples having a good resin dispersion, which are clear, particles with sub-micrometric size (2-300 nm) are obtained; sizes are associated with the presence of more or less large aggregates. In the extreme cases of precipitation phenomena (> 1000 nm), the sample appears cloudy, and this is associated with a very poor resin dispersion.
In our case, from the data shown in Tables 1 and 2 of Example 3 it can be clearly seen that […] for the solvents of the invention, and therefore the size of the aggregates, is considerably lower than in solvents commercially available at present for dispersing modified phenolic resins and maleic resins. […] A 5% w/w modified synthetic phenolic resin was used for the mixtures to be tested by DLS obtained industrially by esterification of rosin with pentaerythritol, and subsequent polymerization with phenol, trade name SIRIUS XVI, supplied by YSER. The Maleic Resin used is Perseus I supplied by Yser. Table 3. ROSIN MODIFIED ESTER RESIN

Setting [3] is: 5% w/w Perseus I resin in the solvent.
Setting [4] is: 5% w/w SIRIUS XVI resin in the solvent.

`CCCCCC(=O)OCCCC` [CAOBu, butyl caproate]: in data set [1] (maleic resin), the “45% resin (dissolution time at 80 °C, min)” value (“45% resin” for short) was >60 min and the “55% resin (dissolution time at 80 °C, min)” value (“55% resin” below) is “A clear solution is not obtained after 4 hrs”. In addition, in data set [1] (rosin modified ester resin), the “45% resin” value is >60 min and the “55% resin” value was “A clear solution is not obtained after 2 hrs”.

`CCCCCCOC(=O)CCCCC` [CAOEs, hexyl caproate]: in data set [1] (maleic resin), the “45% resin” value was >60 min and the “55% resin” value is on record as “A clear solution is not obtained after 4 hrs”. Moreover, in data set [1] (rosin modified ester resin), the “45% resin” value is reported as >60 min and the “55% resin” value was “A clear solution is not obtained after 2 hrs”.

Consider `CCCCCC(=O)OCC(CC)CCCC` (stereo not shown) [CAOEtEs, 2-ethyl-hexyl caproate], for which, in data set [1] (rosin modified ester resin), the “45% resin” value is given as >60 min and the “55% resin” value is “A clear solution is not obtained after 2 hrs”.

In the case of `CCCCCCCCOC(=O)CCCCC` [CAOOt, octyl caproate], in data set [1] (maleic resin), the “45% resin” value is on record as >60 min and the “55% resin” value is recorded as “A clear solution is not obtained after 4 hrs”. Besides, in data set [1] (rosin modified ester resin), the “45% resin” value was >60 min and the “55% resin” value is “A clear solution is not obtained after 2 hrs”.

Take `CCCCCC(=O)OC(C)C` [CAOiPr, isopropyl caproate]: in data set [1] (maleic resin), the “45% resin” value is >60 min and the “55% resin” value is “A clear solution is not obtained after 4 hrs”. Further, in data set [1] (rosin modified ester resin), the “45% resin” value is on record as >60 min and the “55% resin” value is “A clear solution is not obtained after 2 hrs”.

As for `CCCCCCCCCCCC(=O)OCCCC` [LAOBu, butyl laurate], in data set [1] (maleic resin), the “45% resin” value is >60 min and the “55% resin” value was “A clear solution is not obtained after 2 hrs”. In addition, in data set [1] (rosin modified ester resin), the “45% resin” value is given as >60 min and the “55% resin” value is listed as “A clear solution is not obtained after 2 hrs”.

As to `CCCCCCCCCCCC(=O)OCCCCCC` [LAOEs, hexyl laurate], in data set [1] (maleic resin), the “45% resin” value is reported as >60 min and the “55% resin” value is reported as “A clear solution is not obtained after 2 hrs”. Besides, in data set [1] (rosin modified ester resin), the “45% resin” value is reported as >60 min and the “55% resin” value was “A clear solution is not obtained after 2 hrs”.

`CCCCCCCCCCCC(=O)OCC(CC)CCCC` (stereo not shown) [LAOEtEs, 2-ethyl-hexyl laurate]: in data set [1] (maleic resin), the “45% resin” value was >60 min and the “55% resin” value is given as “A clear solution is not obtained after 2 hrs”. In addition, in data set [1] (rosin modified ester resin), the “45% resin” value is recorded as >60 min and the “55% resin” value was “A clear solution is not obtained after 2 hrs”.

With `CCCCCCCCCCCC(=O)OCCCCCCCC` [LAOOt, octyl laurate], in data set [1] (maleic resin), the “45% resin” value was >60 min and the “55% resin” value is “A clear solution is not obtained after 2 hrs”. In addition, in data set [1] (rosin modified ester resin), the “45% resin” value was >60 min and the “55% resin” value is listed as “A clear solution is not obtained after 2 hrs”.

Consider `CCCCCCCCCCCC(=O)OC(C)C` [LAOiPr, isopropyl laurate], for which, in data set [1] (maleic resin), the “45% resin” value is on record as >60 min and the “55% resin” value was “A clear solution is not obtained after 2 hrs”. In addition, in data set [1] (rosin modified ester resin), the “45% resin” value is on record as >60 min and the “55% resin” value is listed as “A clear solution is not obtained after 2 hrs”.

Regarding `CCCCCCCCC(=O)OCCCC` [PAOBu, butylpelargonate], the “Hydrodynamic radius (nm)” value in data set [2] (setting [3]) was 2.34 ± 0.8 nm; in data set [2] (setting [4]) it was 12.9 ± 0.4 nm. For the same molecule, the Polydispersity index in data set [2] (setting [3]) was determined as 0.70±0.06; in data set [2] (setting [4]), 0.71±0.06. The results for the “45% resin” value in data set [1] (maleic resin) and in data set [1] (rosin modified ester resin) were 15 min and 13 min, respectively. Besides, the “55% resin” value is recorded as 20 min in data set [1] (maleic resin) and 14 min in data set [1] (rosin modified ester resin).

Consider `CCCCCCCCC(=O)OCC(CC)CCCC` (stereo not shown) [PAOEtEs, 2-ethyl-hexyl pelargonate], for which, in data set [1] (maleic resin), the “45% resin” value is listed as 60 min and the “55% resin” value is reported as “Clear solution”. Also, in data set [1] (rosin modified ester resin), the “45% resin” value was 50 min and the “55% resin” value is “Clear solution”.

For `CCCCCCCCC(=O)OC` [PAOMe, methylpelargonate], in data set [2] (setting [3]), the “Hydrodynamic radius (nm)” value is on record as 1.7±0.6 nm and the Polydispersity index is listed as 0.90±0.42. Further, in data set [2] (setting [4]), the “Hydrodynamic radius (nm)” value is listed as 8.9 ± 0.9 nm and the Polydispersity index is 0.76±0.11. In addition, in data set [1] (maleic resin), the “45% resin” value stood at 10 min and the “55% resin” value stood at 15 min. Besides, in data set [1] (rosin modified ester resin), the “45% resin” value was 15 min and the “55% resin” value worked out at 16 min.

As to `CCCCCCCCC(=O)OC(C)C` [PAOiPr, isopropyl pelargonate], in data set [2] (setting [3]), the “Hydrodynamic radius (nm)” value was determined as 2.74±0.11 nm and the Polydispersity index turned out to be 1.0±0.3. Also, in data set [2] (setting [4]), the “Hydrodynamic radius (nm)” value is 9.2 ± 1.3 nm and the Polydispersity index is recorded as 0.64±0.14. Also, in data set [1] (maleic resin), the “45% resin” value is reported as 10 min and the “55% resin” value was 15 min. In data set [1] (rosin modified ester resin), the “45% resin” value is reported as 13 min and the “55% resin” value is reported as 15 min.

With `CCCCCCCCCCCCCCCC(=O)OCC(CC)CCCC` (stereo not shown) [Solvent 7129, 2-ethylhexyl palmitate], the aggregate sizes result in data set [2] (maleic resin dispersed in the solvent) and in data set [2] (modified phenolic resin dispersed in the solvent) was “exceeding the limit of detectability by DLS” throughout. Also, the “45% resin” value in data set [1] (rosin modified ester resin) is listed as >60 min. In data set [1] (rosin modified ester resin), the “55% resin” value is “A clear solution is not obtained after 2 hrs”.
